Test systems include HCC-2998 colon; U251 CNS; SF-295 CNS; MALME-3M melanoma; CAKI-1 renal; CCRF-CEM leukemia; NCI-H522 lung; KM12 colon; RXF 393 renal; HL-60(TB) leukemia.
Assay in all cases: DTP human tumour cell line panel, 48 h

Among the data in PubChem BioAssay (NCI) are GI50 and TGI values, retold here.

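Where inhibition never reached the appropriate level, the endpoint shown equals the highest concentration tested. Otherwise, values were interpolated linearly from a five-concentration, 48-hour dose response in 96-well plates. At the GI50, growth is halved. TGI marks complete inhibition of growth.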

In general, GI50 refers to the concentration giving 50% growth inhibition. A word on the TGI: it is the concentration giving total growth inhibition. Take `COC(=O)C1=C2C3=C(C(=O)c4ccccc4C3=O)N(Cc3ccccc3)C2(OC(C)=O)C=CC1=O` (stereo unspecified): the GI50 with HCC-2998 colon was 4.67 µM; in the test with U251 CNS it was 9.86 µM; in the test with SF-295 CNS, 6.3 µM; in the test on MALME-3M melanoma, 10.8 µM; with CAKI-1 renal it was 1.89 µM; in the test with CCRF-CEM leukemia, 0.378 µM. Besides, the GI50 in the test on NCI-H522 lung was 5.56 µM. The TGI was 47.4 µM with HCC-2998 colon; 39.4 µM in the test with U251 CNS; 29.3 µM in the test on SF-295 CNS; 26.5 µM with MALME-3M melanoma; 13.2 µM in the test with CAKI-1 renal; greater than 100 µM in the test with CCRF-CEM leukemia. This compound returned a TGI in the test on NCI-H522 lung greater than 100 µM.

With `Cc1cc(N2CCOCC2)nc(N(CCNc2ccnc3cc(Cl)ccc23)Cc2ccco2)n1`, the GI50 in the test on HCC-2998 colon is 6.12 µM; in the test with U251 CNS, 3.21 µM; in the test on SF-295 CNS, 1.68 µM; in the test with MALME-3M melanoma, 3.41 µM; with KM12 colon, 4.81 µM; in the test on CCRF-CEM leukemia it was 3.18 µM. Moreover, the figures for the GI50 with NCI-H522 lung and with RXF 393 renal were 1.84 µM and 1.64 µM, respectively. For the same compound, the TGI in the test on HCC-2998 colon was 44.8 µM; with U251 CNS it was 12.4 µM; in the test with SF-295 CNS it was 3.64 µM; in the test with MALME-3M melanoma, 10.3 µM; in the test with KM12 colon, 53.5 µM; in the test on CCRF-CEM leukemia, greater than 100 µM. The TGI with NCI-H522 lung amounted to 4.75 µM; in the test on RXF 393 renal, 4.29 µM.

Regarding `O=C(O)c1ccc([N+](=O)[O-])c(P(=O)(O)O)c1`, the concentration for total growth inhibition (TGI) in the test on HL-60(TB) leukemia, in the test on U251 CNS, in the test on SF-295 CNS, in the test with KM12 colon, in the test on CAKI-1 renal and with RXF 393 renal was greater than 100 µM throughout.

`CCOC(=O)NC(=O)c1cn(CCCCCCCCCCC(=O)N2CCN(CCn3cc(C(=O)NC(=O)OCC)c(=O)[nH]c3=O)CC2)c(=O)[nH]c1=O`: the TGI in the test on HCC-2998 colon, with HL-60(TB) leukemia, in the test on U251 CNS, in the test on SF-295 CNS, in the test with CAKI-1 renal and in the test with CCRF-CEM leukemia was greater than 100 µM in each case. The compound also came in with a TGI in the test on RXF 393 renal greater than 100 µM.

On to `NCC(=O)Nc1ccc(-n2nc(C(F)(F)F)cc2-c2ccc3c(ccc4ccccc43)c2)cc1`, for which the GI50 in the test with HL-60(TB) leukemia was 1.3 µM; in the test with SF-295 CNS, 1.16 µM; in the test on MALME-3M melanoma it was 1.83 µM; with KM12 colon it was 0.922 µM; in the test on CAKI-1 renal, 1.17 µM; with CCRF-CEM leukemia, 0.746 µM. Also, the GI50 is 1.32 µM with NCI-H522 lung and 1.38 µM with RXF 393 renal. Besides, the TGI in the test on HL-60(TB) leukemia was found to be 3.42 µM; with SF-295 CNS it was 2.6 µM; with MALME-3M melanoma, 3.51 µM; with KM12 colon, 2.18 µM; with CAKI-1 renal, 2.66 µM; with CCRF-CEM leukemia, 4.16 µM. For the same compound, the TGI in the test with NCI-H522 lung came to 2.71 µM; with RXF 393 renal, 2.75 µM.

Consider `COc1ccc(C2Cc3cc(OC)c(OC)c(OC)c3C2=O)cc1` (stereo unspecified), for which the TGI in the test with HCC-2998 colon, with U251 CNS, with SF-295 CNS, in the test on MALME-3M melanoma, in the test on KM12 colon and in the test with CAKI-1 renal was greater than 100 µM throughout. Besides, the TGI with CCRF-CEM leukemia is greater than 100 µM.

For `CCCCN(CCCC)c1cc(C(=O)CCCCCN)c2ccccc2n1`, the GI50 was 1.76 µM in the test with HCC-2998 colon; 1.77 µM in the test with U251 CNS; 1.86 µM in the test on SF-295 CNS; 2.16 µM with MALME-3M melanoma; 1.86 µM with CAKI-1 renal; 3.2 µM in the test with CCRF-CEM leukemia. The GI50 with NCI-H522 lung was 1.91 µM; with RXF 393 renal it was 1.53 µM. For the same compound, the TGI came out at 3.21 µM in the test on HCC-2998 colon; 3.23 µM in the test on U251 CNS; 3.85 µM with SF-295 CNS; 4.16 µM in the test with MALME-3M melanoma; 4.38 µM in the test with CAKI-1 renal; 7.32 µM in the test on CCRF-CEM leukemia. Besides, the TGI in the test with NCI-H522 lung turned out to be 3.52 µM; in the test on RXF 393 renal, 2.89 µM.

On to `CC1=C(C)C(=O)c2c(cc3c4ccccc4ccn23)C1=O`, for which the TGI with U251 CNS, in the test with SF-295 CNS, in the test with MALME-3M melanoma, with KM12 colon, with NCI-H522 lung and in the test with RXF 393 renal was greater than 100 µM in each case.

On to `O=C(Nc1cccc(-n2cc(-c3ccncc3)c(-c3cc(O)cc(Cl)c3)n2)c1)Nc1ccc(Cl)c(Cl)c1`, for which the GI50 in the test on HCC-2998 colon is 2.93 µM; with U251 CNS, 1.44 µM; in the test on SF-295 CNS, 1.7 µM; in the test with MALME-3M melanoma, 1.8 µM; in the test on KM12 colon, 1.5 µM; in the test with CAKI-1 renal, 2.21 µM. The GI50 with NCI-H522 lung was 1.1 µM; in the test with RXF 393 renal, 0.555 µM. Also, the TGI in the test on HCC-2998 colon is 8.99 µM; in the test on U251 CNS, 3.09 µM; in the test on SF-295 CNS, 4.6 µM; in the test with MALME-3M melanoma, 5.48 µM; with KM12 colon, 3.69 µM; with CAKI-1 renal, 7.01 µM. Moreover, the TGI in the test on NCI-H522 lung was 3.14 µM; with RXF 393 renal, 2.46 µM.

Take `NC(Cc1cc(Br)c(O)c(Br)c1)C(=O)O` (stereo unspecified): the TGI in the test on HL-60(TB) leukemia, in the test on U251 CNS, with SF-295 CNS, in the test on MALME-3M melanoma, in the test on KM12 colon and with CAKI-1 renal was greater than 100 µM each time. For the same compound, the TGI in the test with CCRF-CEM leukemia, in the test with NCI-H522 lung and with RXF 393 renal was greater than 100 µM in each case.

Take `CCCCC(SC(=S)N(CC)CC)C(=O)Nc1nc(CC(=O)OCC)cs1` (stereo unspecified): the GI50 was 59.3 µM in the test with HCC-2998 colon; 28.6 µM in the test with HL-60(TB) leukemia; 42.1 µM in the test with U251 CNS; 38.6 µM in the test on SF-295 CNS; 24.8 µM in the test with MALME-3M melanoma; 31.6 µM with KM12 colon. Further, the GI50 with CAKI-1 renal is 91.7 µM; in the test with NCI-H522 lung, 13.3 µM; in the test with RXF 393 renal, 32.5 µM. Besides, the TGI was greater than 100 µM in the test on HCC-2998 colon; 98.5 µM in the test with HL-60(TB) leukemia; greater than 100 µM in the test with U251 CNS; greater than 100 µM in the test with SF-295 CNS; greater than 100 µM with MALME-3M melanoma; greater than 100 µM in the test with KM12 colon. Moreover, the TGI in the test with CAKI-1 renal, with NCI-H522 lung and in the test on RXF 393 renal was greater than 100 µM throughout.
